US20190321334A1, “COMPOSITIONS AND METHODS FOR THE TREATMENT OF PRESBYOPIA” (priority 2018, published 2019)

Columns and labels:
[1] = system: presbyopic subjects; experiment: Near vision acuity after topical instillation (near test card at 16 inches; Reading vs. Baseline at 40 cm; onset, duration, Efficacy Index); assay type: in vivo, human
From the text: (§1) Subject is an emmetrope over the age of 45 with a baseline near vision of 20.100 and baseline distance vision of 20.20. Topical administration to the eye of 1% w/v pilocarpine in saline solution results in an improvement of near vision to 20.40 (8a), however this improvement comes at the expense of a reduction in distance vision to 20.100 (8b). […] A proper drug carrier can also have a beneficial effect.
(§2) 1.75% w/v aceclidine was formulated in 0.9% w/v saline with 0.02% w/v BAK. Drops were instilled binocularly into a subject. Near vision testing was performed at 16 inches on a Precision Vision 16″ near test card. All near vision testing was binocular.
(§3) As aceclidine is an […], the clinical effectiveness may vary with different ratios. For the present studies a nearly exact 50:50 ratio of stereoisomers was measured as best determined by polarimetry.
In brief, the score is calculated by multiplying the lines of improvement in near visual acuity by the number of hours the improvement lasts. For example a score of: 5 is equal to +1 lines of improvement in near visual acuity for 5 hours; 10 is equal to +1.5 lines of improvement for 6.7 hours; 15 is equal to 2 lines of improvement for 7.5 hours; 20 is equal to 2.5 lines of improvement for 8 hours; 25 is equal to 3+ lines of improvement for 8.3 hours and 35 is equal to 3.75+ lines of improvement for 9 hours.
2 subjects instilled 2 drops each of the above formulation in each eye about 5 minutes apart.

[2] = system: presbyopic subjects; experiment: Distance vision acuity after topical instillation; assay type: in vivo, human; settings: baseline distance 20.20
From the text: as §1, §2, §3

[3] = 1% w/v pilocarpine or 1.55% w/v aceclidine in saline solution, emmetrope over 45, baseline near 20.100
[4] = 1% w/v pilocarpine or 1.55% w/v aceclidine in saline solution

Compound	near vision (FIG. 1) [1, 3]	time period of near vision improvement (FIG. 1) ([1]; 1.55% w/v aceclidine in saline solution) [h]	near vision improvement ([1]; 1.75% aceclidine, 2.5% mannitol, 0.01% tropicamide, 5% polysorbate 80)	near vision (FIG. 1) ([1]; aceclidine in carrier with 0.042% w/v tropicamide)	near vision (FIG. 1) ([1]; aceclidine in carrier: 5.5% HPβCD, 0.75% CMC, 0.25% NaCl, 0.01% BAK)	distance vision (FIG. 1) [2, 4]	near vision (FIG. 1) ([1]; 1% w/v pilocarpine with addition of 0.015% w/v tropicamide, baseline near 20.100)	distance vision (FIG. 1) ([2]; 1% w/v pilocarpine with addition of 0.015% w/v tropicamide)
CC(=O)OC1CN2CCC1CC2 (racemic) [Aceclidine, aceclidine]	20.40	6	up to 3 lines of vision acuity	20.15	< 20.20	without any effect on the baseline distance vision	–	–
CC[C@@H]1C(=O)OC[C@@H]1Cc1cncn1C [pilocarpine]	20.40	–	–	–	–	20.100	20.25	20.55
